In patent publication US20070004660A1, “Synergistic Modulation of Flt3 Kinase Using Alkylquinolines and Alkylquinazolines” (priority 2005, published 2007):

Biological target: T1, wild-type FLT3 receptor (Homo sapiens, UniProt P36888)
T1 construct: host or cells: Baf3 (murine B cell lymphoma line), stably transfected
T1 sequence (P36888 27-993): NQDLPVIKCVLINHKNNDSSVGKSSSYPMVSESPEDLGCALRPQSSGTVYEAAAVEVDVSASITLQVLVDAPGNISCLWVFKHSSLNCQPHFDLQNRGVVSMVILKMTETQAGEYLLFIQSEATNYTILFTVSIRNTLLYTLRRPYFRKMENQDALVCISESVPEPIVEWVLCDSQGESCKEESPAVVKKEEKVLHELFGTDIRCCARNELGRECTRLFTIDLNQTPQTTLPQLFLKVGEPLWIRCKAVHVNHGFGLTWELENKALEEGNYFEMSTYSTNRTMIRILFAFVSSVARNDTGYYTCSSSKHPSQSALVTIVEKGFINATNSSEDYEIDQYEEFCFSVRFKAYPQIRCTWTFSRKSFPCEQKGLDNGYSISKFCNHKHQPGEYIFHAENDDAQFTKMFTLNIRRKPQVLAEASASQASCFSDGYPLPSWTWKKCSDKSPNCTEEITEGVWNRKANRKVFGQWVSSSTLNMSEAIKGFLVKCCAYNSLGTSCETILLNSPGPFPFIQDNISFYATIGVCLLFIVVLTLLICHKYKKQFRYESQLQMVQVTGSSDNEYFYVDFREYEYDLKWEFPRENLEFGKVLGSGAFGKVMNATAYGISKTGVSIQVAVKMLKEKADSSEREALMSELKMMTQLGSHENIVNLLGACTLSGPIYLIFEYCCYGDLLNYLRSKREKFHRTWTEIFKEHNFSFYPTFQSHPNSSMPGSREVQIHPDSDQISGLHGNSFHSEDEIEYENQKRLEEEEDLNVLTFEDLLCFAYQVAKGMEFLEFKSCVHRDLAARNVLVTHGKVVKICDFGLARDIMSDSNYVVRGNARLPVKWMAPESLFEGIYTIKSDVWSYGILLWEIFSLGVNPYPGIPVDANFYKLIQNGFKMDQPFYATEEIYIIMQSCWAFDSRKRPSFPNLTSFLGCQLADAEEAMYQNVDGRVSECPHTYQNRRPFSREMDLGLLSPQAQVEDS
Assay: Cell-based FLT3 receptor ELISA (FLT ligand-induced phosphorylation in Baf3 FLT3 cells)
Conditions: 100 ng/mL Flt ligand, uncertainty ±20%
Description: Specific cellular inhibition of FLT ligand-induced wild-type FLT3 phosphorylation was measured in the following manner: Baf3 FLT3 cells overexpressing the FLT3 receptor were obtained from Dr. Michael Heinrich (Oregon Health and Sciences University). The Baf3 FLT3 cell lines were created by stable transfection of parental Baf3 cells (a murine B cell lymphoma line dependent on the cytokine IL-3 for growth) with wild-type FLT3. Cells were selected for their ability to grow in the absence of IL-3 and in the presence of FLT3 ligand. Baf3 cells were maintained in RPMI 1640 with 10% FBS, penn/strep and 10 ng/ml FLT ligand at 37° C., 5% CO2. To measure direct inhibition of the wild-type FLT3 receptor activity and phosphorylation a sandwich ELISA method was developed similar to those developed for other RTKs (see Sadick, M D, Sliwkowski, M X, Nuijens, A, Bald, L, Chiang, N, Lofgren, J A, Wong W L T. Analysis of Heregulin-Induced ErbB2 Phosphorylation with a High-Throughput Kinase Receptor Activation Enzyme-Linked Immunsorbent Assay, Analytical Biochemistry. 1996; 235:207-214 and Baumann C A, Zeng L, Donatelli R R, Maroney A C. Development of a quantitative, high-throughput cell-based enzyme-linked immunosorbent assay for detection of colony-stimulating factor-1 receptor tyrosine kinase inhibitors. J Biochem Biophys Methods. 2004; 60:69-79.). 200 μL of Baf3FLT3 cells (1×10^6 /mL) were plated in 96 well dishes in RPMI 1640 with 0.5% serum and 0.01 ng/mL IL-3 for 16 hours prior to 1 hour compound or DMSO vehicle incubation. Cells were treated with 100 ng/mL Flt ligand (R&D Systems Cat# 308-FK) for 10 min. at 37° C. Cells were pelleted, washed and lysed in 100 ul lysis buffer (50 mM Hepes, 150 mM NaCl, 10% Glycerol, 1% Triton-X-100, 10 mM NaF, 1 mM EDTA, 1.5 mM MgCl2, 10 mM NaPyrophosphate) supplemented with phosphatase (Sigma Cat# P2850) and protease inhibitors (Sigma Cat #P8340). Lysates were cleared by centrifugation at 1000×g for 5 minutes at 4° C. Cell lysates were transferred to white wall 96 well microtiter (Costar #9018) plates coated with 50 ng/well anti-FLT3 antibody (Santa Cruz Cat# sc-480) and blocked with SeaBlock reagent (Pierce Cat#37527). Lysates were incubated at 4° C. for 2 hours. Plates were washed 3× with 200 ul/well PBS/0.1% Triton-X-100. Plates were then incubated with 1:8000 dilution of HRP-conjugated anti-phosphotyrosine antibody (Clone 4G10, Upstate Biotechnology Cat#16-105) for 1 hour at room temperature. Plates were washed 3× with 200 ul/well PBS/0.1% Triton-X-100. Signal detection with Super Signal Pico reagent (Pierce Cat#37070) was done according to manufacturer's instruction with a Berthold microplate luminometer. All data points are an average of triplicate samples. […] Inhibition and IC50 data analysis was done with GraphPad Prism using a non-linear regression fit with a multiparamater, sigmoidal dose-response (variable slope) equation.

`CS(=O)(=O)NCCCOc1ccc2c(C3CCN(C(=O)Nc4ccc(N5CCCC5)nc4)CC3)ncnc2c1` [Example 86, 4-[7-(3-Methanesulfonylamino-propoxy)-quinazolin-4-yl]-piperidine-1-carboxylic acid (6-pyrrolidin-1-yl-pyridin-3-yl)-amide] gave an IC50 of 9 nM.
Compound `COc1cc2ncnc(C3CCN(C(=O)Nc4ccc(-c5ccc(Cl)nc5)cc4)CC3)c2cc1OC` [Example 60, 4-(6,7-Dimethoxy-quinazolin-4-yl)-piperidine-1-carboxylic acid [4-(6-chloro-pyridin-3-yl)-phenyl]-amide] has an IC50 of 46 nM.
In the case of `O=C(Nc1ccc(N2CCOCC2)cc1)N1CCC(c2ncnc3cc(OCCN4CCOCC4)ccc23)CC1` [Example 96, 4-[7-(2-Morpholin-4-yl-ethoxy)-quinazolin-4-yl]-piperidine-1-carboxylic acid (4-morpholin-4-yl-phenyl)-amide], the IC50 is reported as 243 nM.
For `COc1cc2ncnc(C3CCN(C(=O)Nc4ccc(C5=CCNCC5)cc4)CC3)c2cc1OC` [Example 62, 4-(6,7-Dimethoxy-quinazolin-4-yl)-piperidine-1-carboxylic acid [4-(1,2,3,6-tetrahydro-pyridin-4-yl)-phenyl]-amide], the IC50 was 976 nM.
In the case of `CS(=O)(=O)NCCCOc1ccc2c(C3CCN(C(=O)Nc4ccc(N5CCOCC5)nc4)CC3)ncnc2c1` [Example 87, 4-[7-(3-Methanesulfonylamino-propoxy)-quinazolin-4-yl]-piperidine-1-carboxylic acid (6-morpholin-4-yl-pyridin-3-yl)-amide], the IC50 is reported as 23 nM.
`CN1CCN(CCCOc2ccc3c(C4CCN(C(=O)Nc5cnc(N6CCCC6)nc5)CC4)ncnc3c2)CC1` [Example 105, 4-{7-[3-(4-Methyl-piperazin-1-yl)-propoxy]-quinazolin-4-yl}-piperidine-1-carboxylic acid (2-pyrrolidin-1-yl-pyrimidin-5-yl)-amide] showed an IC50 of 98 nM.
In the case of `COc1cc2ncnc(C3CCN(C(=O)Nc4ccc(C(C)C)cc4)CC3)c2cc1OC` [Example 4, 4-(6,7-Dimethoxy-quinazolin-4-yl)-piperidine-1-carboxylic acid (4-isopropyl-phenyl)-amide], the IC50 is reported as 56 nM.
With `COc1cc2ncnc(C3CCN(C(=O)NC4CCC(C(C)(C)C)CC4)CC3)c2cc1OC` (stereo not shown) [Example 54, 4-(6,7-Dimethoxy-quinazolin-4-yl)-piperidine-1-carboxylic acid (4-tert-butyl-cyclohexyl)-amide] the IC50 was 266 nM.
Compound `COc1cc2ncnc(C3CCN(C(=O)Nc4ccccc4)CC3)c2cc1OC` [Example 45, 4-(6,7-Dimethoxy-quinazolin-4-yl)-piperidine-1-carboxylic acid phenylamide] has an IC50 greater than 3000 nM.
For `CC(C)Oc1ccc(NC(=O)N2CCC(c3ncnc4ccc(C#CCN5CCCCC5)cc34)CC2)cc1` [Example 14, 4-[6-(3-Piperidin-1-yl-prop-1-ynyl)-quinazolin-4-yl]-piperidine-1-carboxylic acid (4-isopropoxy-phenyl)-amide], the IC50 was 186 nM.
`O=C(Nc1ccc(N2CCOCC2)cc1)N1CCC(c2ncnc3cc(OCCCN4CCC[C@H]4CO)ccc23)CC1` [Example 119, (S)-4-{7-[3-(2-Hydroxymethyl-pyrrolidin-1-yl)-propoxy]-quinazolin-4-yl}-piperidine-1-carboxylic acid (4-morpholin-4-yl-phenyl)-amide] gave an IC50 of 37 nM.
`CC(C)Oc1ccc(NC(=O)N2CCC(c3ncnc4cc(OCCCN5CCCC5=O)ccc34)CC2)cc1` [Example 67, 4-{7-[3-(2-Oxo-pyrrolidin-1-yl)-propoxy]-quinazolin-4-yl}-piperidine-1-carboxylic acid (4-isopropoxy-phenyl)-amide] was tested, and the IC50 was 3 nM.
`O=C1CCCN1CCOc1ccc2c(C3CCN(C(=O)Nc4cnc(N5CCCC5)nc4)CC3)ncnc2c1` [Example 84, 4-{7-[2-(2-Oxo-pyrrolidin-1-yl)-ethoxy]-quinazolin-4-yl}-piperidine-1-carboxylic acid (2-pyrrolidin-1-yl-pyrimidin-5-yl)-amide] was tested, and the IC50 was 80 nM.
`CN1CCN(CCCOc2ccc3c(C4CCN(C(=O)Nc5ccc(OC6CCCC6)nc5)CC4)ncnc3c2)CC1` [Example 82, 4-{7-[3-(4-Methyl-piperazin-1-yl)-propoxy]-quinazolin-4-yl}-piperidine-1-carboxylic acid (6-cyclopentyloxy-pyridin-3-yl)-amide] gave an IC50 of 63 nM.
For `CC(C)Oc1ccc(NC(=O)N2CCC(c3ncnc4cc(N(C)C)ccc34)CC2)cc1` [Example 100, 4-(7-Dimethylamino-quinazolin-4-yl)-piperidine-1-carboxylic acid (4-isopropoxy-phenyl)-amide], the IC50 was 8 nM.
With `CN1CCC(COc2ccc3c(C4CCN(C(=O)Nc5ccc(OC6CCC6)nc5)CC4)ncnc3c2)CC1` [Example 107, 4-[7-(1-Methyl-piperidin-4-ylmethoxy)-quinazolin-4-yl]-piperidine-1-carboxylic acid (6-cyclobutoxy-pyridin-3-yl)-amide] the IC50 was 21 nM.
With `CCOc1ccc(NC(=O)N2CCC(c3ncnc4cc(OC)c(OC)cc34)CC2)cc1` [Example 44, 4-(6,7-Dimethoxy-quinazolin-4-yl)-piperidine-1-carboxylic acid (4-ethoxy-phenyl)-amide] the IC50 was 163 nM.
In the case of `O=C1CCCN1CCCOc1ccc2c(C3CCN(C(=O)Nc4ccc(N5CCCC5)nc4)CC3)ncnc2c1` [Example 89, 4-{7-[3-(2-Oxo-pyrrolidin-1-yl)-propoxy]-quinazolin-4-yl}-piperidine-1-carboxylic acid (6-pyrrolidin-1-yl-pyridin-3-yl)-amide], the IC50 is reported as 1 nM.
`O=C(Nc1ccc(N2CCOCC2)nc1)N1CCC(c2ncnc3cc(OCCN4CCOC4=O)ccc23)CC1` [Example 91, 4-{7-[2-(2-Oxo-oxazolidin-3-yl)-ethoxy]-quinazolin-4-yl}-piperidine-1-carboxylic acid (6-morpholin-4-yl-pyridin-3-yl)-amide] gave an IC50 of 6 nM.
In the case of `CCN1CCN(CCCOc2ccc3c(C4CCN(C(=O)Nc5ccc(N6CCOCC6)cc5)CC4)ncnc3c2)CC1` [Example 115, 4-{7-[3-(4-Ethyl-piperazin-1-yl)-propoxy]-quinazolin-4-yl}-piperidine-1-carboxylic acid (4-morpholin-4-yl-phenyl)-amide], the IC50 is reported as 9 nM.
`O=C(Nc1ccc(N2CCOCC2)cc1)N1CCC(c2ncnc3cc(OCCCN4CCCC4)ccc23)CC1` [Example 124, 4-[7-(3-Pyrrolidin-1-yl-propoxy)-quinazolin-4-yl]-piperidine-1-carboxylic acid (4-morpholin-4-yl-phenyl)-amide] was tested, and the IC50 was 63 nM.
With `O=C(Nc1ccc(N2CCOCC2)cc1)N1CCC(c2ncnc3cc(OCCC4CCCCN4)ccc23)CC1` (stereo not shown) [Example 98, 4-[7-(2-Piperidin-2-yl-ethoxy)-quinazolin-4-yl]-piperidine-1-carboxylic acid (4-morpholin-4-yl-phenyl)-amide] the IC50 was 86 nM.
